Measurements: patent publication US20260242419A1, “A CYCLIC PEPTIDE FOR TRAPPING INTERLEUKIN-1 BETA” (Merck Sharp & Dohme LLC, priority 2023, published 2026)
pIC50: −log10 of the molar value. Starred links: 1 amine or outer side, 2 acyl side, 3 side chain; linkers in the order of their positions; H or OH if unused. Non-standard residues stand in square brackets, D forms with d. Residues, ends and D or L forms follow the SMILES beside them. dPro(4R-(4-pyridylmethyl)) = O=C(O)[C@H]1C[C@@H](Cc2ccncc2)CN1; X16 = Cn1cnc(-c2ccc(C[C@H]3CCN([*:1])[C@H]3C(=O)[*:2])cc2)c1; Trp(βS-Me,4-F) = C[C@@H](c1c[nH]c2cccc(F)c12)[C@H](N)C(=O)O; X48 = O=C([C@H]1[C@@H](Cc2ccc(-c3cccnc3)cc2)CCN1[*:1])[*:2]; 3Aminoazetidine3carboxyl = O=C(C1(N[*:1])CN([*:3])C1)[*:2]; Bip(4'-CONH2) = NC(=O)c1ccc(-c2ccc(C[C@H](N)C(=O)O)cc2)cc1; Bip(4'-COOH) = N[C@@H](Cc1ccc(-c2ccc(C(=O)O)cc2)cc1)C(=O)O; Ala(1-bicyclo(1.1.1)pentyl) = N[C@@H](CC12CC(C1)C2)C(=O)O; dPro(4R-Bzl(4-F)) = O=C(O)[C@H]1C[C@@H](Cc2ccc(F)cc2)CN1; dPro(3S-(4-F-Bn)) = O=C(O)[C@@H]1NCC[C@@H]1Cc1ccc(F)cc1; X4 = O=C([C@H]1[C@@H](Cc2ccncc2)CCN1[*:1])[*:2]; Ala(pyrimidin-5-yl) = N[C@@H](Cc1cncnc1)C(=O)O; Phe(4-COOH) = N[C@@H](Cc1ccc(C(=O)O)cc1)C(=O)O; Pro(cis-4-F) = O=C(O)[C@@H]1C[C@H](F)CN1; Ala(4-THP) = N[C@@H](CC1CCOCC1)C(=O)O; X10 = C[C@@](CCN)(N[*:1])C(=O)[*:2]; cisHyp = O=C(O)[C@@H]1C[C@H](O)CN1; d(αMeD) = C[C@@](N)(CC(=O)O)C(=O)O; 4Pal = N[C@@H](Cc1ccncc1)C(=O)O; αMeD = C[C@](N)(CC(=O)O)C(=O)O; d(αMeS) = C[C@@](N)(CO)C(=O)O; Cba = N[C@@H](CC1CCC1)C(=O)O; dCba = N[C@H](CC1CCC1)C(=O)O; αMeK = C[C@](N)(CCCCN)C(=O)O; hSer = N[C@@H](CCO)C(=O)O; Orn = NCCC[C@H](N)C(=O)O; Dab = NCC[C@H](N)C(=O)O; Aib = CC(C)(N)C(=O)O

Target: T1, IL-1β (Homo sapiens, UniProt P01584)
T1 construct: purchased BioLegend 579404
Assay: IL-6 assay in MRC5 cells: inhibition of IL-1β induced IL-6 secretion (AlphaLISA)
Assay type: cell-based
Conditions: inhibition of IL-1β induced IL-6 secretion in MRC5 cells; compound pre-incubated 1 hour with recombinant human IL-1β; read-out: MRC5 IC50
In short: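 Compound was pre-incubated 1 h at ambient temperature with recombinant human IL-1β at 2λ EC80 before adding human lung fibroblast MRC5 cells (3000/well) in EMEM with 0.025% BSA. After overnight culture at 37 °C, 5% CO2, secreted IL-6 in conditioned medium was measured by AlphaLISA; IC50 from 4-parameter logistic fits.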

T1 sequence (P01584 117-269): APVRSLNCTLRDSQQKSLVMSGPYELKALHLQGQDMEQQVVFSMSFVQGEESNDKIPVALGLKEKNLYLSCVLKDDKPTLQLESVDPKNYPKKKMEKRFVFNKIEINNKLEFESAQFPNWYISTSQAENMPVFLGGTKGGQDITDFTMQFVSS

pIC50	Structure (SMILES)
10.70	C[C@@H](c1c[nH]c2cccc(F)c12)[C@@H]1NC(=O)[C@@H]2C[C@H](F)CN2C(=O)CNC(=O)[C@H](Cc2ccc(C(=O)O)cc2)NC(=O)[C@H](Cc2ccncc2)NC(=O)[C@H](Cc2ccc(-c3ccc(C(=O)O)cc3)cc2)NC(=O)[C@H]2[C@@H](Cc3ccncc3)CCN2C(=O)CNC(=O)[C@H](CCN)NC(=O)[C@H](CCC(N)=O)NC(=O)[C@@H](CC2CCC2)NC(=O)[C@@](C)(CC(=O)O)NC(=O)[C@H](Cc2c[nH]c3ccccc23)NC(=O)[C@H](CO)NC(=O)C(C)(C)NC1=O [Example 239] (cyclo([Bip(4'-COOH)][4Pal][Phe(4-COOH)]G[Pro(cis-4-F)][Trp(βS-Me,4-F)][Aib]SW[d(αMeD)][dCba]Q[Dab]G[X4]))

Same assay, conditions: inhibition of IL-1β induced IL-6 secretion in MRC5 cells; read-out: MRC5 IC50

Structure (SMILES)	pIC50
C[C@@H](c1c[nH]c2cccc(F)c12)[C@@H]1NC(=O)[C@@H]2C[C@H](F)CN2C(=O)CNC(=O)[C@H](Cc2ccc(C(=O)O)cc2)NC(=O)[C@H](CC23CC(C2)C3)NC(=O)[C@H](Cc2ccc(-c3ccc(C(=O)O)cc3)cc2)NC(=O)[C@H]2C[C@@H](Cc3ccc(F)cc3)CN2C(=O)CNC(=O)[C@H](CCN)NC(=O)[C@H](CCC(N)=O)NC(=O)[C@H](Cc2cncnc2)NC(=O)[C@](C)(CCCCN)NC(=O)[C@H](Cc2c[nH]c3ccccc23)NC(=O)[C@H](CCO)NC(=O)C(C)(C)NC1=O [Example 147] (cyclo([Bip(4'-COOH)][Ala(1-bicyclo(1.1.1)pentyl)][Phe(4-COOH)]G[Pro(cis-4-F)][Trp(βS-Me,4-F)][Aib][hSer]W[αMeK][Ala(pyrimidin-5-yl)]Q[Dab]G[dPro(4R-Bzl(4-F))]))	10.35
C[C@@H](c1c[nH]c2cccc(F)c12)[C@@H]1NC(=O)[C@@H]2C[C@H](F)CN2C(=O)CNC(=O)[C@H](Cc2ccc(C(=O)O)cc2)NC(=O)[C@H](Cc2ccncc2)NC(=O)[C@H](Cc2ccc(-c3ccc(C(=O)O)cc3)cc2)NC(=O)[C@H]2[C@@H](Cc3ccc(-c4cn(C)cn4)cc3)CCN2C(=O)CNC(=O)[C@H](CCN)NC(=O)[C@H](CCC(N)=O)NC(=O)[C@H](Cc2cncnc2)NC(=O)C(C)(C)NC(=O)[C@H](Cc2c[nH]c3ccccc23)NC(=O)[C@H](CCC(=O)O)NC(=O)C(C)(C)NC1=O [Example 64] (cyclo([Bip(4'-COOH)][4Pal][Phe(4-COOH)]G[Pro(cis-4-F)][Trp(βS-Me,4-F)][Aib]EW[Aib][Ala(pyrimidin-5-yl)]Q[Dab]G[X16]))	10.85
C[C@@H](c1c[nH]c2cccc(F)c12)[C@@H]1NC(=O)[C@@H]2C[C@H](F)CN2C(=O)CNC(=O)[C@H](Cc2ccc(C(=O)O)cc2)NC(=O)[C@H](Cc2ccncc2)NC(=O)[C@H](Cc2ccc(-c3ccc(C(=O)O)cc3)cc2)NC(=O)[C@H]2[C@@H](Cc3ccc(-c4cccnc4)cc3)CCN2C(=O)CNC(=O)[C@H](CCN)NC(=O)[C@H](CCC(N)=O)NC(=O)[C@H](Cc2cncnc2)NC(=O)C(C)(C)NC(=O)[C@H](Cc2c[nH]c3ccccc23)NC(=O)[C@H](CCC(=O)O)NC(=O)C(C)(C)NC1=O [Example 56] (cyclo([Bip(4'-COOH)][4Pal][Phe(4-COOH)]G[Pro(cis-4-F)][Trp(βS-Me,4-F)][Aib]EW[Aib][Ala(pyrimidin-5-yl)]Q[Dab]G[X48]))	10.66
C[C@@H](c1c[nH]c2cccc(F)c12)[C@@H]1NC(=O)[C@@H]2C[C@H](F)CN2C(=O)CNC(=O)[C@H](Cc2ccc(C(=O)O)cc2)NC(=O)[C@H](CC23CC(C2)C3)NC(=O)[C@H](Cc2ccc(-c3ccc(C(=O)O)cc3)cc2)NC(=O)[C@H]2C[C@@H](Cc3ccc(F)cc3)CN2C(=O)CNC(=O)[C@H](CCN)NC(=O)[C@H](CCC(N)=O)NC(=O)[C@H](CCCN)NC(=O)C(C)(C)NC(=O)[C@H](Cc2c[nH]c3ccccc23)NC(=O)[C@H](CO)NC(=O)C(C)(C)NC1=O [Example 110] (cyclo([Bip(4'-COOH)][Ala(1-bicyclo(1.1.1)pentyl)][Phe(4-COOH)]G[Pro(cis-4-F)][Trp(βS-Me,4-F)][Aib]SW[Aib][Orn]Q[Dab]G[dPro(4R-Bzl(4-F))]))	10.42
C[C@@H](c1c[nH]c2cccc(F)c12)[C@@H]1NC(=O)[C@@H]2C[C@H](F)CN2C(=O)CNC(=O)[C@H](Cc2ccc(C(=O)O)cc2)NC(=O)[C@H](CC2CCC2)NC(=O)[C@H](Cc2ccc(-c3ccc(C(=O)O)cc3)cc2)NC(=O)[C@H]2C[C@@H](Cc3ccncc3)CN2C(=O)CNC(=O)[C@H](CCN)NC(=O)[C@H](CCC(N)=O)NC(=O)[C@H](Cc2cncnc2)NC(=O)C(C)(C)NC(=O)[C@H](Cc2c[nH]c3ccccc23)NC(=O)[C@H](CO)NC(=O)C(C)(C)NC1=O [Example 163] (cyclo([Bip(4'-COOH)][Cba][Phe(4-COOH)]G[Pro(cis-4-F)][Trp(βS-Me,4-F)][Aib]SW[Aib][Ala(pyrimidin-5-yl)]Q[Dab]G[dPro(4R-(4-pyridylmethyl))]))	10.52
C[C@@H](c1c[nH]c2cccc(F)c12)[C@@H]1NC(=O)[C@@H]2C[C@H](F)CN2C(=O)CNC(=O)[C@H](Cc2ccc(C(=O)O)cc2)NC(=O)[C@H](Cc2ccncc2)NC(=O)[C@H](Cc2ccc(-c3ccc(C(=O)O)cc3)cc2)NC(=O)[C@H]2C[C@@H](Cc3ccc(F)cc3)CN2C(=O)CNC(=O)[C@H](CCN)NC(=O)[C@H](CCC(N)=O)NC(=O)[C@H](Cc2cncnc2)NC(=O)C(C)(C)NC(=O)[C@H](Cc2c[nH]c3ccccc23)NC(=O)[C@H](CO)NC(=O)[C@](C)(CCN)NC1=O [Example 129] (cyclo([Bip(4'-COOH)][4Pal][Phe(4-COOH)]G[Pro(cis-4-F)][Trp(βS-Me,4-F)][X10]SW[Aib][Ala(pyrimidin-5-yl)]Q[Dab]G[dPro(4R-Bzl(4-F))]))	10.72
C[C@@H](c1c[nH]c2cccc(F)c12)[C@@H]1NC(=O)[C@@H]2C[C@H](F)CN2C(=O)CNC(=O)[C@H](Cc2ccc(C(=O)O)cc2)NC(=O)[C@H](Cc2ccncc2)NC(=O)[C@H](Cc2ccc(-c3ccc(C(=O)O)cc3)cc2)NC(=O)[C@H]2C[C@@H](Cc3ccc(F)cc3)CN2C(=O)CNC(=O)[C@H](CCN)NC(=O)[C@H](CCC(N)=O)NC(=O)[C@H](Cc2cncnc2)NC(=O)C2(CNC2)NC(=O)[C@H](Cc2c[nH]c3ccccc23)NC(=O)[C@H](CCC(=O)O)NC(=O)C(C)(C)NC1=O [Example 21] (cyclo([Bip(4'-COOH)][4Pal][Phe(4-COOH)]G[Pro(cis-4-F)][Trp(βS-Me,4-F)][Aib]EW[3Aminoazetidine3carboxyl][Ala(pyrimidin-5-yl)]Q[Dab]G[dPro(4R-Bzl(4-F))]))	10.40

More lines, now with the values ahead:

pIC50	Structure (SMILES)
10.54	C[C@@H](c1c[nH]c2cccc(F)c12)[C@@H]1NC(=O)[C@@H]2C[C@H](O)CN2C(=O)CNC(=O)[C@H](Cc2ccc(C(=O)O)cc2)NC(=O)[C@H](Cc2ccncc2)NC(=O)[C@H](Cc2ccc(-c3ccc(C(=O)O)cc3)cc2)NC(=O)[C@H]2C[C@@H](Cc3ccncc3)CN2C(=O)CNC(=O)[C@H](CCN)NC(=O)[C@H](CCC(N)=O)NC(=O)[C@H](CC2CCOCC2)NC(=O)C(C)(C)NC(=O)[C@H](Cc2c[nH]c3ccccc23)NC(=O)[C@H](CO)NC(=O)C(C)(C)NC1=O [Example 212] (cyclo([Bip(4'-COOH)][4Pal][Phe(4-COOH)]G[cisHyp][Trp(βS-Me,4-F)][Aib]SW[Aib][Ala(4-THP)]Q[Dab]G[dPro(4R-(4-pyridylmethyl))]))
11.10	C[C@@H](c1c[nH]c2cccc(F)c12)[C@@H]1NC(=O)[C@@H]2C[C@H](F)CN2C(=O)CNC(=O)[C@H](Cc2ccc(C(=O)O)cc2)NC(=O)[C@H](CC23CC(C2)C3)NC(=O)[C@H](Cc2ccc(-c3ccc(C(N)=O)cc3)cc2)NC(=O)[C@H]2[C@@H](Cc3ccc(F)cc3)CCN2C(=O)CNC(=O)[C@H](CCN)NC(=O)[C@H](CCC(N)=O)NC(=O)[C@H](CC2CCOCC2)NC(=O)[C@@](C)(CO)NC(=O)[C@H](Cc2c[nH]c3ccccc23)NC(=O)[C@H](CO)NC(=O)C(C)(C)NC1=O [Example 216] (cyclo([Bip(4'-CONH2)][Ala(1-bicyclo(1.1.1)pentyl)][Phe(4-COOH)]G[Pro(cis-4-F)][Trp(βS-Me,4-F)][Aib]SW[d(αMeS)][Ala(4-THP)]Q[Dab]G[dPro(3S-(4-F-Bn))]))
10.66	C[C@@H](c1c[nH]c2cccc(F)c12)[C@@H]1NC(=O)[C@@H]2C[C@H](F)CN2C(=O)CNC(=O)[C@H](Cc2ccc(C(=O)O)cc2)NC(=O)[C@H](CC23CC(C2)C3)NC(=O)[C@H](Cc2ccc(-c3ccc(C(N)=O)cc3)cc2)NC(=O)[C@H]2C[C@@H](Cc3ccncc3)CN2C(=O)CNC(=O)[C@H](CCN)NC(=O)[C@H](CCC(N)=O)NC(=O)[C@H](Cc2cncnc2)NC(=O)[C@@](C)(CC(=O)O)NC(=O)[C@H](Cc2c[nH]c3ccccc23)NC(=O)[C@H](CO)NC(=O)C(C)(C)NC1=O [Example 342] (cyclo([Bip(4'-CONH2)][Ala(1-bicyclo(1.1.1)pentyl)][Phe(4-COOH)]G[Pro(cis-4-F)][Trp(βS-Me,4-F)][Aib]SW[d(αMeD)][Ala(pyrimidin-5-yl)]Q[Dab]G[dPro(4R-(4-pyridylmethyl))]))
10.85	C[C@@H](c1c[nH]c2cccc(F)c12)[C@@H]1NC(=O)[C@@H]2C[C@H](F)CN2C(=O)CNC(=O)[C@H](Cc2ccc(C(=O)O)cc2)NC(=O)[C@H](Cc2ccncc2)NC(=O)[C@H](Cc2ccc(-c3ccc(C(=O)O)cc3)cc2)NC(=O)[C@H]2C[C@@H](Cc3ccncc3)CN2C(=O)CNC(=O)[C@H](CCN)NC(=O)[C@H](CCC(N)=O)NC(=O)[C@H](CC2CCOCC2)NC(=O)[C@](C)(CC(=O)O)NC(=O)[C@H](Cc2c[nH]c3ccccc23)NC(=O)[C@H](CO)NC(=O)C(C)(C)NC1=O [Example 200] (cyclo([Bip(4'-COOH)][4Pal][Phe(4-COOH)]G[Pro(cis-4-F)][Trp(βS-Me,4-F)][Aib]SW[αMeD][Ala(4-THP)]Q[Dab]G[dPro(4R-(4-pyridylmethyl))]))
